These results are taken from patent US8828401B2, “Cytotoxic peptides and antibody drug conjugates thereof” (Pfizer Inc., priority 2011, dated 2014).

The structures appear in SMILES notation. pIC50: −log10 of the molar value. Non-standard residues stand in square brackets, D forms with d. Residues, ends and D or L forms follow the SMILES beside them. *: point of attachment. Dolaproine = CO[C@@H]([C@@H]1CCCN1)[C@@H](C)C(=O)O; Dil = CC[C@H](C)[C@H](NC)[C@@H](CC(=O)O)OC; X10 = C[C@@H](N*)[C@@H](O)c1ccccc1; Ac4c(3-oxa) = NC1(C(=O)O)COC1; dIva = CC[C@@](C)(N)C(=O)O; NMeAib = CNC(C)(C)C(=O)O; X8 = C1=CC=CC(CCN*)C=C1; Aib = CC(C)(N)C(=O)O

For orientation: pIC50 means the negative decadic logarithm of the IC50, by convention in mol/L.

Assay [1] relates to MDA-MB-361-DYT2 (breast cancer). The experiment in a line: In vitro cell assay, MTS cell viability 96 hours after treatment. It is filed as cell-based. As to conditions: read-out: MDA-MB-361-DYT2 GMEAN IC50, MDA-MB-361-DYT2 cells; geometric mean; cytotoxic peptides. How it is done: (§1) Cells were treated with 3-fold serially diluted antibody-drug conjugates or free compounds (i.e., no antibody conjugated to the drug) in duplicate at 10 concentrations. Cell viability was determined by CellTiter 96® AQueous One Solution Cell Proliferation MTS Assay (Promega, Madison Wis.) 96 hours after treatment. Relative cell viability was determined as percentage of untreated control.

Another assay concerns N87 (gastric cancer). Described as above. As to conditions: read-out: N87 GMEAN IC50, N87 cells; geometric mean; cytotoxic peptides. The class given is cell-based. How it is done: as §1

With `CC[C@H](C)[C@@H]([C@@H](CC(=O)N1CCC[C@H]1[C@H](OC)[C@@H](C)C(=S)N[C@@H](Cc1ccccc1)C(=O)OC)OC)N(C)C(=O)[C@@H](NC(=O)C(C)(C)N)C(C)C` [#45, 2-methylalanyl-N-[(3R,4S,5S)-3-methoxy-1-{(2S)-2-[(1R,2R)-1-methoxy-3-{[(2S)-1-methoxy-1-oxo-3-phenylpropan-2-yl]amino}-2-methyl-3-thioxopropyl]pyrrolidin-1-yl}-5-methyl-1-oxoheptan-4-yl]-N-methyl-L-valinamide], the negative-log IC50 (pIC50) in assay [1] was 9.38; in the assay with N87 (gastric cancer), 9.41. Taken in the same sequence, the figures for `CC[C@H](C)[C@@H]([C@@H](CC(=O)N1CCC[C@H]1[C@H](OC)[C@@H](C)C(=O)N[C@@H](Cc1ccccc1)C(=O)OC)OC)N(C)C(=O)[C@@H](NC(=O)C1(N)COC1)C(C)C` [#233] (H-[Ac4c(3-oxa)]V[Dil][Dolaproine]F-OMe) were 8.30 and 8.08.

Consider `CC[C@H](C)[C@@H]([C@@H](CC(=O)N1CCC[C@H]1[C@H](OC)[C@@H](C)C(=O)N[C@@H](Cc1ccccc1)C(=O)OC)OC)N(C)C(=O)[C@@H](NC(=O)[C@](C)(N)CC)C(C)C` [#149, D-isovalyl-N-{(1S,2R)-4-{(2S)-2-[(1R,2R)-3-{[(1S)-1-benzyl-2-methoxy-2-oxoethyl]amino}-1-methoxy-2-methyl-3-oxopropyl]pyrrolidin-1-yl}-2-methoxy-1-[(1S)-1-methylpropyl]-4-oxobutyl}-N-methyl-L-valinamide] (H-[dIva]V[Dil][Dolaproine]F-OMe), for which the negative logarithm of the IC50 (pIC50) in assay [1] was 9.37. With `CC[C@H](C)[C@@H]([C@@H](CC(=O)N1CCC[C@H]1[C@H](OC)[C@@H](C)C(=O)N[C@H](C)[C@@H](O)c1ccccc1)OC)N(C)C(=O)[C@@H](NC(=O)C(C)(C)NC)C(C)C` [#145, N,2-dimethylalanyl-N-{(1S,2R)-4-{(2S)-2-[(1R,2R)-3-{[(1R,2S)-2-hydroxy-1-methyl-2-phenylethyl]amino}-1-methoxy-2-methyl-3-oxopropyl]pyrrolidin-1-yl}-2-methoxy-1-[(1S)-1-methylpropyl]-4-oxobutyl}-N-methyl-L-valinamide] (H-[NMeAib]V[Dil][Dolaproine]-X10), the results for the negative logarithm of the IC50 (pIC50) (in assay [1]; in the assay with N87 (gastric cancer)) were 9.64 and 9.78, respectively. As to `CC[C@H](C)[C@@H]([C@@H](CC(=O)N1CCC[C@H]1[C@H](OC)[C@@H](C)C(=O)N[C@@H](Cc1ccc2c(c1)CCCN2)C(=O)OC)OC)N(C)C(=O)[C@@H](NC(=O)[C@]1(C)CCCN1C)C(C)C` [#207, 1,2-dimethyl-L-prolyl-N-[(3R,4S,5S)-3-methoxy-1-{(2S)-2-[(1R,2R)-1-methoxy-3-{[(2S)-1-methoxy-1-oxo-3-(1,2,3,4-tetrahydroquinolin-6-yl)propan-2-yl]amino}-2-methyl-3-oxopropyl]pyrrolidin-1-yl}-5-methyl-1-oxoheptan-4-yl]-N-methyl-L-valinamide], the pIC50 in the assay on N87 (gastric cancer) was 9.20.

Turning to `CC[C@H](C)[C@@H]([C@@H](CC(=O)N1CCC[C@H]1[C@H](OC)[C@@H](C)C(=O)NCCC1C=CC=CC=C1)OC)N(C)C(=O)[C@@H](NC(=O)C(C)(C)N)C(C)C` [#66, 2-Methylalanyl-N-[(3R,4S,5S)-1-{(2S)-2-[(1R,2R)-3-{[2-(cyclohepta-2,4,6-trien-1-yl)ethyl]amino}-1-methoxy-2-methyl-3-oxopropyl]pyrrolidin-1-yl}-3-methoxy-5-methyl-1-oxoheptan-4-yl]-N-methyl-L-valinamide] (H-[Aib]V[Dil][Dolaproine]-X8), the negative-log IC50 (pIC50) in assay [1] is 9.48. Regarding `CC[C@H](C)[C@@H]([C@@H](CC(=O)N1CCC[C@H]1[C@H](OC)[C@@H](C)C(=O)N[C@@H](Cc1ccccc1)c1nccs1)OC)N(C)C(=O)[C@@H](NC(=O)[C@]1(C)CCCCN1)C(C)C` [#188, (2S)—N-[(2S)-1-{[(3R,4S,5S)-3-methoxy-1-{(2S)-2-[(1R,2R)-1-methoxy-2-methyl-3-oxo-3-{[(1S)-2-phenyl-1-(1,3-thiazol-2-yl)ethyl]amino}propyl]pyrrolidin-1-yl}-5-methyl-1-oxoheptan-4-yl](methyl)amino}-3-methyl-1-oxobutan-2-yl]-2-methylpiperidine-2-carboxamide], the pIC50 in assay [1] is 9.39.
